Like-named read-outs stand apart in the source and are kept apart here.
Biological target: T1, hVAChT (Homo sapiens, UniProt Q16572)
T1 sequence (Q16572 1-532): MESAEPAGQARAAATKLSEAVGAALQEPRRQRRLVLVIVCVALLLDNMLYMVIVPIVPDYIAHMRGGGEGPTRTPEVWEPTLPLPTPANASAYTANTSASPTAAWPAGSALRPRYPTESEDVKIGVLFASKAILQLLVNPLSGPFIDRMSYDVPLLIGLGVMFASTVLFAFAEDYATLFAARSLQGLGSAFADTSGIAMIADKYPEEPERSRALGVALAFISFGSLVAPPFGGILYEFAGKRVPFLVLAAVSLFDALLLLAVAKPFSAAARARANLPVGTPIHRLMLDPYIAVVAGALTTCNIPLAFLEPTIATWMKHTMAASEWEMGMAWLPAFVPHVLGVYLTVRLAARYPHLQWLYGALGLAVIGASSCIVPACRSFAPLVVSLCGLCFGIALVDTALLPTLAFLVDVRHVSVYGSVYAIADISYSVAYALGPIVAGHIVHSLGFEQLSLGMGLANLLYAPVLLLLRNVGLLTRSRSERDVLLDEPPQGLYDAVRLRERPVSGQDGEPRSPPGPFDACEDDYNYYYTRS
Assay: Competitive binding assay with
Details: for inhibition of (-)-[^3H]TZ659 binding to VAChT: competitive binding studies, other CNS receptor ligands

[1] = radioligand (-)-[^3H]TZ659 2 nM, test ligands 0.1 nM to 10 μM, 60 min, 25 °C

Row | Compound | Ki [µM] | inhibition of (-)-[^3H]TZ659 binding to VAChT | Ki [1] [µM]
1 | CC(C)=CCN1CC[C@]2(C)c3cc(O)ccc3C[C@H]1[C@H]2C [(+)-Pentazocine] | > 1 | No inhibition | –
2 | CCc1cc(Cl)c(OC)c(C(=O)NC[C@@H]2CCCN2CC)c1O [S-(-)-Eticlopride] | – | No inhibition | > 1
3 | COc1ccccc1N1CCN(CC(C(=O)NC(C)(C)C)c2ccccc2)CC1 (stereo not drawn) [WAY-100135] | – | No inhibition | > 1
4 | COc1cc2c(cc1OC)CN(CCCCNC(=O)c1cc(C)ccc1OCCF)CC2 [ISO-1] | – | No inhibition | > 1
5 | Cn1cc(-c2ccncc2)c(-c2ccc(OCc3ccc4ccccc4n3)cc2)n1 [MP-10] | – | No inhibition | > 1
6 | COc1cc2c(cc1OC)[C@H]1C[C@@H](O)[C@H](CC(C)C)CN1CC2 [DTBZ] | – | No inhibition | > 1

From article PMC4369186 (European journal of pharmacology, 2015)
